Data as given in US20260000705A1, “LIPOPOLYSACCHARIDE FOR USE AS A MEDICAMENT” (priority 2022, published 2026).

Legend:
TLR2/6 = TLR2/6 (Homo sapiens, UniProt O60603+Q9Y2C9); test: Luciferase reporter assay in HEK-293+TLR2/6 cells; format: cell-based; settings: corrected on renilla activity; ratios compared to non-stimulated cells; cells lysed 24 h after ligand
Experimental: (§1) Stable immortalized HEK-293+TLR2/6 and HEK-293+TLR4/MD2/CD14 (Invitrogen) cells were seeded in 6-well plates in 1× DMEM supplemented with 5% FBS, 1 mM glutamine, amino acids not essential 1× and pyruvate 0.01%. At 80% confluency, pcon3A-luciferase (pcon3A motif responses to KNFB activation) and TK-renilla vectors (99:1 ratio, respectively) were transfected with metafectene. The transfection medium was changed after 24 hours, and the cells were seeded in 96-well plates. Ligands were added 24 hours later at 80% confluence and cells were lysed after 24 h. Luciferase activity was read using the TwinLite kit (Perkin Elmer) on a Fluo Star Optima (BMG) plate reader and corrected based on renilla activity (three replicates per condition). All ratios were compared to the control condition (non-stimulated cells). We used Pam3CSK4, FSL-1, and Escherichia coli LPS as control ligands with agonistic effect mediated by TLR2/1, TLR2/6, and TLR4 receptors, respectively. TNF alpha was used as a positive control in all cell lines.

TLR4/MD2/CD14 = TLR4/MD2/CD14 (Homo sapiens, UniProt O00206+Q9Y6Y9); test: Luciferase reporter assay in HEK-293+TLR4/MD2/CD14 cells; format: cell-based; settings: corrected on renilla activity; ratios compared to non-stimulated cells; cells lysed 24 h after ligand
Experimental: as §1

TLR4/MD2/CD14, sequence (Q9Y6Y9 19-160): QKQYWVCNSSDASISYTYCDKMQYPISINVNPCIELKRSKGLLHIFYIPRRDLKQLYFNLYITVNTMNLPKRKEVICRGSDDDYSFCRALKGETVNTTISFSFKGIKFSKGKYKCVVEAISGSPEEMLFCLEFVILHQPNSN
TLR4/MD2/CD14, sequence (O00206 24-839): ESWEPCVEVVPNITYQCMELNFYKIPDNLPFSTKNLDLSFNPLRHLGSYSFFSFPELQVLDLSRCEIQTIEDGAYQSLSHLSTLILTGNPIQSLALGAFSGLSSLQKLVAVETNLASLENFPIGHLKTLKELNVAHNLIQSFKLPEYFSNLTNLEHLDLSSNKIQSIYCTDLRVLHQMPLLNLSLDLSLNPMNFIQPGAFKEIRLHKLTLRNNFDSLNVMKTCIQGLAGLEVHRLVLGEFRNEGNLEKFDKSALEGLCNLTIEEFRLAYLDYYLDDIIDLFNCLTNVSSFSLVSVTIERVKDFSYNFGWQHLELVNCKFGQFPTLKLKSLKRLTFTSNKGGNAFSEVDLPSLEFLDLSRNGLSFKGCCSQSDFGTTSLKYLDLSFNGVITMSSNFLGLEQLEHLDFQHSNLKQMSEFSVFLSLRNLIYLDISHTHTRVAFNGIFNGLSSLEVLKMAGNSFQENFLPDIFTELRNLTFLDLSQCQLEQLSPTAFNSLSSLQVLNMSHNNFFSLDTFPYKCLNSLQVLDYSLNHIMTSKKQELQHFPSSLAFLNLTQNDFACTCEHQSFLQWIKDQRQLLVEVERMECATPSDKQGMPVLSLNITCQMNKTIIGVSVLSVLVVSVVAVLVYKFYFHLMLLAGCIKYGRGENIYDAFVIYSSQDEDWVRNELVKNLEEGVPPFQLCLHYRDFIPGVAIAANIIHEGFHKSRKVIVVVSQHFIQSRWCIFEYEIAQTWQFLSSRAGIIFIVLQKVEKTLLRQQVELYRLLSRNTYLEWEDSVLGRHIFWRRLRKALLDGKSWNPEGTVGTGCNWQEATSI
TLR2/6, sequence (O60603 21-784): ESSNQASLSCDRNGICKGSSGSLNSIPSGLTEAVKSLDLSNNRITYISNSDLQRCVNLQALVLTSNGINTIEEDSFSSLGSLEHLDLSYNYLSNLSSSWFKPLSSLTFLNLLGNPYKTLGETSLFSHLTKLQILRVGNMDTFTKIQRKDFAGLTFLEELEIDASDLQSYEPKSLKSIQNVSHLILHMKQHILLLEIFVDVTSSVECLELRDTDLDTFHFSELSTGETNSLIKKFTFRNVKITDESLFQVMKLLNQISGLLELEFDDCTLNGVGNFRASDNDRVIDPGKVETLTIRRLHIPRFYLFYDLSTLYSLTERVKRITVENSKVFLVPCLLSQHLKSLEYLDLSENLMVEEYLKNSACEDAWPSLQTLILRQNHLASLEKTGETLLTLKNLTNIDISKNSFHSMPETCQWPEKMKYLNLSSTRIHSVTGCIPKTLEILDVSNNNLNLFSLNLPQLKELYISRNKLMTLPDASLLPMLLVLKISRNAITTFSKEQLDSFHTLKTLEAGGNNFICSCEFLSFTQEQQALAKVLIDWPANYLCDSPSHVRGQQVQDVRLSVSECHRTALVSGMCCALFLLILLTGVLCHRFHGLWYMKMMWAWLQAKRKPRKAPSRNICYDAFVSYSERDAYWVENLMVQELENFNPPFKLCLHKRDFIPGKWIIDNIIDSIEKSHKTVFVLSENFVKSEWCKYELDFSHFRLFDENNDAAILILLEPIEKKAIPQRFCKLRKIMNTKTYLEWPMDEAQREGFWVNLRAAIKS
TLR2/6, sequence (Q9Y2C9 32-796): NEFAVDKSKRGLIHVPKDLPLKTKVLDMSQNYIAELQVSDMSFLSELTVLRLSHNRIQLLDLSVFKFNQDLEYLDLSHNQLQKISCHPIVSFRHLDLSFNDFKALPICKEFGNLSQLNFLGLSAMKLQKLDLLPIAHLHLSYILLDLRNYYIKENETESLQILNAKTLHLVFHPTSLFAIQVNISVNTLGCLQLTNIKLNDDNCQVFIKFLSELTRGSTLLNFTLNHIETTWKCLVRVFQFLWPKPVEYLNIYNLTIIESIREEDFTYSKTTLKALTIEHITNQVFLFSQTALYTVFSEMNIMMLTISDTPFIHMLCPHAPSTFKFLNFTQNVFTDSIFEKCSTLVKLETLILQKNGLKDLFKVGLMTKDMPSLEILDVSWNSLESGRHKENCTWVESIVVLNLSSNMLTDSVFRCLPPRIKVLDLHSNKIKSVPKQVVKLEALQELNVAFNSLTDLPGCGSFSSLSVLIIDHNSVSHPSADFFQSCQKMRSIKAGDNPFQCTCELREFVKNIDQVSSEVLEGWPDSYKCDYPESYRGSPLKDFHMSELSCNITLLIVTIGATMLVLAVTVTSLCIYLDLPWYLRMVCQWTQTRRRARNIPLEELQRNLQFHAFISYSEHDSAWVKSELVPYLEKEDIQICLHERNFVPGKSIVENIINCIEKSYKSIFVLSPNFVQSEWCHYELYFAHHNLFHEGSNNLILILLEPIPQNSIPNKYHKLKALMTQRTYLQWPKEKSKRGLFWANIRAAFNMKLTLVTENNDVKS

Substance: FSL-1
- HEK-TLR2 luciferase activity (TLR2/6): 2.195 fold vs non-stimulated cells
- HEK-TLR4 luciferase activity (TLR4/MD2/CD14): 1.123 fold vs non-stimulated cells

Substance: Pam3CSK4
- HEK-TLR2 luciferase activity (TLR2/6): 4.079 fold vs non-stimulated cells
- HEK-TLR4 luciferase activity (TLR4/MD2/CD14): 1.112 fold vs non-stimulated cells
